Assay results published in patent US20250242032A1, “AGGREGATE FORMED BY MEANS OF ASSEMBLING CHALCOGEN HETEROCYCLIC COMPOUND AND INSULIN, AND PREPARATION METHOD THEREFOR, AND INSULIN ORAL PREPARATION” (FUZHOU UNIVERSITY, priority 2021, published 2025).

What was measured:
Caco-2 cells = test: Trans-epithelial electrical resistance (TEER), integrity of epithelial cell layer; format: cell-based, human; details: Caco-2 monolayer, monitored for 12 hours
diabetic model mice [1] = test: Blood glucose of diabetic model mice after oral administration of enteric-coated capsule loading lyophilized aggregate; format: in vivo, C57BL/6J mice
Protocol: (1) Streptozotocin (STZ) was intraperitoneally injected into 6-8 week-old C57BL/6J mice for five consecutive days to induce pancreatic islet B-cell damage. On the 17th day after the first injection, the blood glucose concentration of the mice was measured, and the diabetic mouse model was considered to be successfully established when the blood glucose concentration was higher than 300 mg/dL. (2) After the diabetic model mice were orally administered with a suspension of the above aggregate at an amount of insulin of 80 U/kg, blood was collected from the tail vein of the mice at different time points to monitor the change in blood glucose. In control experiment 1, an equal amount of free insulin was administered orally to the diabetic model mice. In control experiment 2, an equal volume of physiological saline was administered orally to the diabetic model mice. In control experiment 3, insulin was injected subcutaneously to the diabetic model mice at 5 U/kg. Change in blood glucose level of diabetic model mice after orally administered with an enteric-coated capsule loading the aggregate of insulin and chalcogen heterocyclic compound (1) The aggregate was prepared into a lyophilized powder and loaded in an enteric-coated capsule. In control experiment 1, an equal amount of free insulin was loaded in an enteric-coated capsule. (2) A diabetic mice model was established according to the method as above. The mice were administered with recombinant insulin at an amount of 20 U/kg, after which the blood was taken from the tail vein of the mice at different time points to monitor the change in blood glucose concentration. In control experiment 2, insulin was injected subcutaneously to the diabetic model mice at 5 U/kg.

diabetic model pigs = test: Blood glucose of diabetic model pigs after oral administration of enteric-coated capsule loading lyophilized aggregate; format: in vivo, Bama mini-pigs; details: oral enteric-coated capsule loading free insulin, 20 U/kg
Protocol: Change in blood glucose level of diabetic model pigs after orally administered with an enteric-coated capsule loading the aggregate of insulin and chalcogen heterocyclic compound (1) Streptozotocin (STZ, with a concentration of 75 mg/mL) was infused intravenously to 4-month-old Bama mini-pigs at 150 mg/kg to induce pancreatic islet B-cell damage. On the 7th day after the first infusion, the blood glucose concentration of the pigs was measured, and the diabetic pig model was considered to be successfully established when the blood glucose concentration was higher than 300 mg/dL. (2) The aggregate was prepared into a lyophilized powder and loaded in an enteric-coated capsule. In control experiment 1, an equal amount of free insulin was loaded in an enteric-coated capsule. (3) The diabetic model pigs were administered with recombinant insulin at an amount of 20 U/kg, after which the blood was taken from the jugular vein of the pigs at different time points to monitor the change in blood glucose concentration. (4) The diabetic model pigs were given normal food at the 3rd and 8th hour after administration, and the food bowl was removed after 15 minutes.

diabetic model mice [2] = test: Blood glucose of diabetic model mice after oral administration of aggregate suspension; format: in vivo, C57BL/6J mice
Protocol: Change in blood glucose level of diabetic model mice after administered orally with the aggregate of insulin and chalcogen heterocyclic compound (1) Streptozotocin (STZ) was intraperitoneally injected into 6-8 week-old C57BL/6J mice for five consecutive days to induce pancreatic islet B-cell damage. On the 17th day after the first injection, the blood glucose concentration of the mice was measured, and the diabetic mouse model was considered to be successfully established when the blood glucose concentration was higher than 300 mg/dL. (2) After the diabetic model mice were orally administered with a suspension of the above aggregate at an amount of insulin of 80 U/kg, blood was collected from the tail vein of the mice at different time points to monitor the change in blood glucose. In control experiment 1, an equal amount of free insulin was administered orally to the diabetic model mice. In control experiment 2, an equal volume of physiological saline was administered orally to the diabetic model mice. In control experiment 3, insulin was injected subcutaneously to the diabetic model mice at 5 U/kg. Change in blood glucose level in diabetic model mice after administration of a suspension of the aggregate of insulin and chalcogen heterocyclic compound: The diabetic model mice were orally administered with a suspension of the aggregate 2 obtained above at an amount of insulin of 50 U/kg, and then the blood was collected from the tail vein of the mice at different time points to monitor the change in blood glucose concentration. In control experiment 1, an equal volume of physiological saline was administered orally to the diabetic model mice, and in control experiment 2, insulin was injected subcutaneously to the diabetic model mice at 5 U/kg. Change in blood glucose level in diabetic model mice after administration of a suspension of the aggregate of insulin and chalcogen heterocyclic compound: The diabetic model mice were orally administered with a suspension of the above aggregate 3 at an amount of insulin of 50 U/kg. […]

[3] = subcutaneous injection 5 U/kg, 15 minutes after injection
[4] = subcutaneous injection 5 U/kg, within 15-180 minutes

| Compound | change in TEER (Caco-2 cells) | reduction in blood glucose concentration (diabetic model mice [1]; oral enteric-coated capsule loading free insulin, 20 U/kg) | reduction in blood glucose (diabetic model mice [1]; [3]) | reduction of blood glucose concentration (diabetic model mice [1]; [4]) | reduction in blood glucose concentration (diabetic model pigs) | reduction in blood glucose concentration (diabetic model mice [2]; oral, equal amount of free insulin (80 U/kg)) | reduction in blood glucose concentration (diabetic model mice [2]; [3]) | reduction of blood glucose concentration (diabetic model mice [2]; [4]) |
| --- | --- | --- | --- | --- | --- | --- | --- | --- |
| CCCCCCCCCC(=O)[O-].[Na+] [sodium caprate] | drastically reduced |  |  |  |  |  |  |  |
| free insulin: human recombinant insulin, used unencapsulated as oral control or subcutaneous injection control |  | little reduction | significant reduction | 30-50% | little reduction | little reduction | significant reduction | 30-50% |
